Results taken from PubChem BioAssay AID248 (DTP/NCI, 2004).
“And” between values parts separate entries of the source, which are not always exact repeats. Equal entries are not always repeated. Toxic doses and inconclusive results are not listed. No stated cut-off is given here; in the data, active means T/C of 150% or more; inactive means T/C below 125%.

Test system: L1210 leukemia ip in BDF1 mice, survival T/C
Test: NCI In Vivo Anticancer Drug Screen. Data for tumor model L1210 Leukemia (intraperitoneal) in B6D2F1 (BDF1) mice
Conditions: endpoint: mean survival time, higher = longer survival
How it was run: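 Ratio derived from survival: compound-dosed mice over vehicle-dosed mice, all bearing a transplantable tumor.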

[1] = dose: 100.0 mg/kg/injection, schedule: Q01DX001 (ip), vehicle: saline
[2] = dose: 200.0 mg/kg/injection, schedule: Q01DX001 (ip), vehicle: saline
[3] = dose: 400.0 mg/kg/injection, schedule: Q01DX001 (ip), vehicle: saline
[4] = dose: 100.0 mg/kg/injection, schedule: Q04DX003 (ip), vehicle: saline with Tween-80
[5] = dose: 100.0 mg/kg/injection, schedule: Q01DX009 (ip), vehicle: Klucel (hydroxypropylcellulose) (HPC)
[6] = dose: 200.0 mg/kg/injection, schedule: Q01DX009 (ip), vehicle: Klucel (hydroxypropylcellulose) (HPC)
[7] = dose: 400.0 mg/kg/injection, schedule: Q01DX009 (ip), vehicle: Klucel (hydroxypropylcellulose) (HPC)
[8] = dose: 100.0 mg/kg/injection, schedule: Q04DX003 (ip), vehicle: saline
[9] = dose: 200.0 mg/kg/injection, schedule: Q04DX003 (ip), vehicle: saline
[10] = dose: 400.0 mg/kg/injection, schedule: Q04DX003 (ip), vehicle: saline
[11] = dose: 100.0 mg/kg/injection, schedule: Q01DX001 (ip), vehicle: saline with Tween-80
[12] = dose: 100.0 mg/kg/injection, schedule: Q01DX009 (ip), vehicle: saline with Tween-80
[13] = dose: 200.0 mg/kg/injection, schedule: Q01DX001 (ip), vehicle: saline with Tween-80
[14] = dose: 200.0 mg/kg/injection, schedule: Q01DX009 (ip), vehicle: saline with Tween-80
[15] = dose: 400.0 mg/kg/injection, schedule: Q01DX001 (ip), vehicle: saline with Tween-80

Measured: T/C

CCOC(=O)CC(C(=O)OCC)N1CCCCC1 (centres undefined)
inactive: [1] 92 % of control | dose: 100.0 mg/kg/injection, schedule: Q01DX009 (ip), vehicle: alcohol 95 % of control | dose: 100.0 mg/kg/injection, schedule: Q04DX003 (ip), vehicle: alcohol 100 % of control | [2] 91 % of control | dose: 200.0 mg/kg/injection, schedule: Q01DX009 (ip), vehicle: alcohol 95 % of control | dose: 200.0 mg/kg/injection, schedule: Q04DX003 (ip), vehicle: alcohol 95 % of control | [3] 94 % of control | dose: 400.0 mg/kg/injection, schedule: Q01DX009 (ip), vehicle: alcohol 105 % of control | dose: 400.0 mg/kg/injection, schedule: Q04DX003 (ip), vehicle: alcohol 97 % of control

CCCCCCc1cccc(C)n1
inactive: [1] 94 % of control | [2] 92 % of control

COc1ccc(CC(=O)NNC(=O)C2(C(C)C)OC3(O)CCCCCN3C2=O)cc1OC (centres undefined)
inactive: dose: 12.5 mg/kg/injection, schedule: Q04DX003 (ip), vehicle: saline with Tween-80 101 % of control | dose: 25.0 mg/kg/injection, schedule: Q04DX003 (ip), vehicle: saline with Tween-80 92 % of control | dose: 50.0 mg/kg/injection, schedule: Q04DX003 (ip), vehicle: saline with Tween-80 101 % of control | [4] 90 % of control

COc1cc(NC(=O)Nc2cccc(C(C)=O)c2)c(OC)cc1Cl
inactive: [5] 116 % of control | [6] 110 % of control | [7] 110 % of control

O=S(=O)(Oc1ccc(-c2ccccc2)cc1)C1CC1c1ccccc1 (centres undefined)
inactive: [1] 93 % of control | [8] 93 % of control | [2] 97 % of control | [9] 96 % of control | [3] 90 % of control | [10] 91 % of control

CSC(C#N)S(C)(=O)=O (centres undefined)
inactive: dose: 25.0 mg/kg/injection, schedule: Q01DX001 (ip), vehicle: Klucel (hydroxypropylcellulose) (HPC) 109 % of control | dose: 50.0 mg/kg/injection, schedule: Q01DX001 (ip), vehicle: Klucel (hydroxypropylcellulose) (HPC) 100 % of control | dose: 100.0 mg/kg/injection, schedule: Q01DX001 (ip), vehicle: Klucel (hydroxypropylcellulose) (HPC) 103 % of control and 108 % of control

CCCC(=O)N1CC(C)OC(C)C1 (centres undefined)
inactive: [1] 100 % of control | dose: 100.0 mg/kg/injection, schedule: Q01DX009 (ip), vehicle: saline 98 % of control and 104 % of control | dose: 100.0 mg/kg/injection, schedule: Q04DX002 (ip), vehicle: saline 109 % of control | [8] 98 % of control | [2] 93 % of control | dose: 200.0 mg/kg/injection, schedule: Q01DX009 (ip), vehicle: saline 100 % of control and 104 % of control | dose: 200.0 mg/kg/injection, schedule: Q04DX002 (ip), vehicle: saline 115 % of control | [9] 104 % of control | [3] 104 % of control | dose: 400.0 mg/kg/injection, schedule: Q01DX009 (ip), vehicle: saline 96 % of control and 107 % of control | dose: 400.0 mg/kg/injection, schedule: Q04DX002 (ip), vehicle: saline 102 % of control | [10] 100 % of control

CCC(C)NNCCO (centres undefined)
inactive: dose: 50.0 mg/kg/injection, schedule: Q01DX001 (ip), vehicle: saline 97 % of control | [1] 103 % of control | [2] 100 % of control

O=C(NCCSSCCNC(=O)c1ccccc1)c1ccccc1
inactive: [1] 92 % of control | [2] 96 % of control | [3] 100 % of control

CN(NC(=O)c1ccccc1)c1ccccc1
inactive: [4] 96 % of control | dose: 200.0 mg/kg/injection, schedule: Q04DX003 (ip), vehicle: saline with Tween-80 107 % of control | dose: 400.0 mg/kg/injection, schedule: Q04DX003 (ip), vehicle: saline with Tween-80 105 % of control

Cc1cc(C)cc(CCc2cc(C)cc(C)c2)c1
inactive: [11] 95 % of control | [12] 88 % of control | [13] 94 % of control | [14] 95 % of control | [15] 89 % of control | dose: 400.0 mg/kg/injection, schedule: Q01DX009 (ip), vehicle: saline with Tween-80 95 % of control

C=C(Br)S(=O)(=O)C(=C)Br
inactive: dose: 6.25 mg/kg/injection, schedule: Q04DX002 (ip), vehicle: alcohol 101 % of control | dose: 12.5 mg/kg/injection, schedule: Q04DX002 (ip), vehicle: alcohol 111 % of control | dose: 25.0 mg/kg/injection, schedule: Q04DX002 (ip), vehicle: alcohol 101 % of control

CCCCNC(C)(C)C(=O)c1ccco1
inactive: dose: 50.0 mg/kg/injection, schedule: Q01DX009 (ip), vehicle: saline with Tween-80 100 % of control | [12] 97 % of control | [14] 111 % of control

[O-][n+]1ccccc1F
inactive: dose: 5.0 mg/kg/injection, schedule: Q01DX001 (ip), vehicle: saline 100 % of control | dose: 10.0 mg/kg/injection, schedule: Q01DX001 (ip), vehicle: saline 102 % of control | dose: 20.0 mg/kg/injection, schedule: Q01DX001 (ip), vehicle: saline 103 % of control | dose: 40.0 mg/kg/injection, schedule: Q01DX001 (ip), vehicle: saline 96 % of control | dose: 80.0 mg/kg/injection, schedule: Q01DX001 (ip), vehicle: saline 98 % of control

CC[N+]1(Cc2ccccc2)CC2(CCCCC2)ON2C1CC(C)C2(C)C (centres undefined)
inactive: [4] 91 % of control

CC(=O)OC1C=CCC2C(=O)c3cc4ccccc4cc3C(=O)C12 (centres undefined)
inactive: dose: 100.0 mg/kg/injection, schedule: Q01DX001 (ip), vehicle: other 100 % of control | dose: 200.0 mg/kg/injection, schedule: Q01DX001 (ip), vehicle: other 104 % of control

CC(=O)OC1CCC2(C)C(CCC3C2CCC2(C)C3CC3OC(CCC(C)(C)O)C(C)C32)C1 (centres undefined)
inactive: [11] 92 % of control | [13] 92 % of control | [15] 92 % of control

CS/C(N)=N\N=C\c1ccccn1
inactive: dose: 12.5 mg/kg/injection, schedule: Q01DX001 (ip), vehicle: carboxymethylcellulose (CMC) 104 % of control | dose: 25.0 mg/kg/injection, schedule: Q01DX001 (ip), vehicle: carboxymethylcellulose (CMC) 103 % of control

CCCCCCCCCCCCCCCCOc1ccc(C(=S)N2CCOCC2)cc1Cl
inactive: dose: 100.0 mg/kg/injection, schedule: Q04DX003 (ip), vehicle: Klucel (hydroxypropylcellulose) (HPC) 104 % of control | dose: 200.0 mg/kg/injection, schedule: Q04DX003 (ip), vehicle: Klucel (hydroxypropylcellulose) (HPC) 91 % of control | dose: 400.0 mg/kg/injection, schedule: Q04DX003 (ip), vehicle: Klucel (hydroxypropylcellulose) (HPC) 86 % of control

O=C1C=C2CCN(C(=O)c3ccccc3)CC2O1 (centres undefined)
inactive: [1] 100 % of control | [2] 105 % of control | [3] 100 % of control

Clc1c2c(nc3ccccc13)CCCC2
inactive: [1] 95 % of control | [2] 95 % of control

CC(C)(C)C1(C)OCCCO1
inactive: dose: 100.0 mg/kg/injection, schedule: Q04DX002 (ip), vehicle: saline with Tween-80 101 % of control | dose: 200.0 mg/kg/injection, schedule: Q04DX002 (ip), vehicle: saline with Tween-80 108 % of control | dose: 400.0 mg/kg/injection, schedule: Q04DX002 (ip), vehicle: saline with Tween-80 87 % of control

O=C(Nc1ccccc1F)OCCOc1ccc(-c2ccccc2)cc1
inactive: [5] 96 % of control | [6] 95 % of control | [7] 98 % of control

O=C(NC1CSSC1)C(Cc1ccccc1)N1C(=O)c2ccccc2C1=O (centres undefined)
inactive: dose: 6.25 mg/kg/injection, schedule: Q01DX009 (ip), vehicle: water 94 % of control | dose: 12.5 mg/kg/injection, schedule: Q01DX009 (ip), vehicle: water 96 % of control | dose: 25.0 mg/kg/injection, schedule: Q01DX009 (ip), vehicle: water 107 % of control | dose: 50.0 mg/kg/injection, schedule: Q01DX009 (ip), vehicle: water 96 % of control and 88 % of control | dose: 100.0 mg/kg/injection, schedule: Q01DX009 (ip), vehicle: water 87 % of control and 91 % of control | dose: 200.0 mg/kg/injection, schedule: Q01DX009 (ip), vehicle: water 98 % of control | dose: 400.0 mg/kg/injection, schedule: Q01DX009 (ip), vehicle: water 96 % of control
